Laboratory results reported in PubChem BioAssay AID1259321 (Sanford-Burnham Center for Chemical Genomics, 2017).
pIC50: −log10 of the molar value. Activity calls are given as the source filed them.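 The calls were made as follows: active = half-maximal concentration for changing protein binding to DNA, from the fitted dose curve, below 10 micromolar; inactive = the rest.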

target: Nuclear receptor subfamily 1 group D member 1 (Homo sapiens) (UniProt P20393); experiment: Rev-erbα–DNA interaction modulators – biochemical, FITC-DNA, fluorescence polarization, dose response (AID 1259321); settings: Rev-erb alpha-FITC-DNA binding
Sequence (P20393 whole entry, looked up): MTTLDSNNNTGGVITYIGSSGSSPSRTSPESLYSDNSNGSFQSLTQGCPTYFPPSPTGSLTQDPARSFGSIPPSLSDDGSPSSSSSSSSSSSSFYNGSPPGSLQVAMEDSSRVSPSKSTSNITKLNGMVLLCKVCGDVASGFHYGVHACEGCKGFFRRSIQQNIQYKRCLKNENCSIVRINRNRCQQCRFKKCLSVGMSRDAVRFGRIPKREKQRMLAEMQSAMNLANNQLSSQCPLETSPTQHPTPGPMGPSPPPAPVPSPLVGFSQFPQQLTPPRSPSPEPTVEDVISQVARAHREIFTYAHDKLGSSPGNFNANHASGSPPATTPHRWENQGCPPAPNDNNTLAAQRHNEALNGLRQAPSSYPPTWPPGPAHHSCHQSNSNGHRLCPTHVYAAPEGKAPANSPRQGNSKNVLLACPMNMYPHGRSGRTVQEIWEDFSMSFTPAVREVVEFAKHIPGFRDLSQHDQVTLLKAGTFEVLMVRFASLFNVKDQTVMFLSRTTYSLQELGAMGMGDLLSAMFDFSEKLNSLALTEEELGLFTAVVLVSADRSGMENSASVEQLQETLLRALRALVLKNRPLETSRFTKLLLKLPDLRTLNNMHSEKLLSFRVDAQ

| SMILES | IC50 | pIC50 |
| --- | --- | --- |
| COc1ccc(-n2c(SCC(=O)Nc3cc(C)on3)nc3c([nH]c4ccccc43)c2=O)cc1 | inactive |  |
| Cc1c(C2N3CC4(C)CN2CC(C)(C3)C4=O)c2ccccc2n1C (stereo not drawn) | inactive |  |
| COc1ccc2c(Cl)c(-c3nnc(SCC(=O)c4ccccc4)n3C)sc2c1 |  | 5.47 |
| CCCCCCCn1c(=O)c(C(=O)Nc2cnccn2)c(O)c2ccccc21 | inactive |  |
| O=C(c1cc2cc(Br)ccc2[nH]1)N1CCc2ccccc21 |  | 5.02 |
| Cc1cc(=O)oc2cc(NC(=O)c3cccc(F)c3)ccc12 |  | 5.99 |
| CCCCCCc1cc2cc(C(=O)Nc3ccccc3)c(=O)oc2cc1O | > 40 µM (inactive) |  |
| Cc1cc(C)c2c(N)c(C(=O)N/N=C/c3cccs3)sc2n1 |  | 5.27 |
| Cc1cccc(-c2nnn3c2nc(NCCc2ccc(S(N)(=O)=O)cc2)c2ccccc23)c1 | > 40 µM (inactive) |  |
| N=C1C(c2nc3ccccc3s2)=C(O)CN1NC(=O)c1c[nH]c2ccccc12 |  | 5.35 |
| CC(=O)Nc1sc(C)c(C)c1C(=O)OCC(=O)N(Cc1ccccc1)C(C)C | inactive |  |
| COc1cc(SC)ccc1C(=O)Nc1ccc(Cl)cn1 |  | 5.34 |
| CCOC(=O)c1c(NC(=S)Nc2ccc(OC)cc2)sc2c1CCC2 |  | 5.23 |
| COc1ccc(NC(=O)c2sc3nc(N4CCCC4)c4c(c3c2N)CC(C)(C)OC4)cc1 | > 40 µM (inactive) |  |
| O=C(OCCN1C(=O)c2cccc3c(N4CCOCC4)ccc(c23)C1=O)c1ccc(Cl)cc1 |  | 5.29 |
| CC(=O)OCC1OC(n2c(-c3ccc(Cl)cc3)ccc(C#N)c2=S)C(OC(C)=O)C(OC(C)=O)C1OC(C)=O (stereo not drawn) | inactive |  |
| O=C(CSc1nc2ccccc2c(=O)n1-c1ccc(F)cc1)Nc1cc(S(=O)(=O)N2CCOCC2)ccc1Cl | > 40 µM (inactive) |  |
| COc1ccc(NC(=O)CSc2nc(-c3ccc(C)cc3)cc(C(F)(F)F)c2C#N)cc1 |  | 6.17 |
| COc1ccccc1NC(=O)c1sc2ncn(Cc3cccc(C)c3)c(=O)c2c1C |  | 6.42 |
| COc1ccc(-c2cc(-c3ccc(C)cc3)nc(SCc3nnc(-c4ccccc4)o3)c2C#N)cc1OC |  | 5.06 |
| COc1ccc(NC(=O)c2sc3cc(C(F)(F)F)cnc3c2-c2cccs2)cc1 | > 40 µM (inactive) |  |
| O=C(OCC(=O)N1CCN(S(=O)(=O)c2ccc(Cl)cc2)CC1)c1cc(Br)ccc1O |  | 5.65 |
| Cc1sc2nc(N3CCOCC3)[nH]c(=O)c2c1-c1ccccc1 |  | 5.12 |
| COc1ccc2c(C)cc(SCC(=O)Nc3ncc(Cl)cc3Cl)nc2c1 |  | 5.15 |
| COc1ccc(C(=O)Nc2nc(C)c(C(C)=O)s2)cc1S(=O)(=O)N1CCOCC1 | > 40 µM (inactive) |  |
| Cc1cc(NC(=O)CSc2nc3c(C)cccc3cc2C#N)no1 | > 40 µM (inactive) |  |

| SMILES | IC50 | pIC50 |
| --- | --- | --- |
| C=CCn1c(=NC(=O)c2cccs2)sc2cc(NC(C)=O)ccc21 | inactive |  |
| O=C(CSc1nnc(-c2cccs2)n1-c1cccc(Cl)c1)c1cccc2c1OCCO2 |  | 5.65 |
| CCc1ccc(-c2cc(C(F)(F)F)n3nc(C(=O)Nc4c(C)nn(Cc5ccccc5Cl)c4C)cc3n2)s1 | inactive |  |
| O=C(Cn1c(=S)[nH]c2ccccc2c1=O)NCCc1ccccc1 |  | 5.05 |
| Cc1ccc(-c2nn(C)c(=O)c3ccccc23)cc1S(=O)(=O)N1CCCC1 | > 40 µM (inactive) |  |
| CCN(CC)c1ccc(-c2c(C#N)c(N)nc(OC)c2C#N)cc1 | > 40 µM (inactive) |  |
| O=C(CCn1c(=O)c2cccn2c2cccnc21)NCc1cccc(Cl)c1 | > 40 µM (inactive) |  |
| CC1=NN(c2ccccc2)C(=O)/C1=C\C=C1/N(C)c2ccccc2C1(C)C | > 40 µM (inactive) |  |
| COc1cc(OC)cc(-c2c(C#Cc3ccsc3)c3cc(-c4ccc(SC)cc4)ccc3n2C)c1 |  | 5.10 |
| COc1ccccc1NC(=O)c1oc2ccccc2c1NC(=O)c1cc(OC)c(OC)c(OC)c1 |  | 5.32 |
| O=C(Nc1ccc(O)c(-c2nc3ccccc3s2)c1)c1cccs1 |  | 5.52 |
| Nc1nc(-c2cccs2)c(-c2cccs2)s1 |  | 5.84 |
| Cc1ccc2nsnc2c1NC(=O)c1sc2ccccc2c1Cl |  | 5.83 |
| COC(=O)c1ccc(Cn2ccc3ccc(-c4ccc5ccn(C(=O)c6ccc(C)cc6)c5c4)cc32)cc1 |  | 5.81 |
| O=c1sc(N2CCN(c3ccc(F)cc3)CC2)nc2ccsc12 | inactive |  |
| Cc1ccc(C)c2nc(SCC(=O)N3CCCc4ccccc43)c(C#N)cc12 |  | 5.21 |
| O=C1c2cccc3c(N4CCCCC4)ccc(c23)C(=O)N1CCO | inactive |  |
| COc1ccc2c(C)cc(SCC(=O)Nc3cccnc3Cl)nc2c1 | > 40 µM (inactive) |  |
| CCCCN(C)C1=CC2=CC(=C(C#N)C#N)CCC2CC1 (stereo not drawn) | > 40 µM (inactive) |  |
| COc1cccc(C(=O)n2ccc3ccc(-c4ccc5ccn(Cc6ccccc6)c5c4)cc32)c1 |  | 5.88 |
| COc1ccc2cc(C3CC(c4cccs4)=NN3C(C)=O)c(Cl)nc2c1 (stereo not drawn) |  | 5.54 |
| CC1(C)Cc2c(sc3c2c(N)nc(=S)n3Cc2ccc(Br)cc2)CO1 | inactive |  |
| Cc1cccc(NC(=O)CSc2ncnc3c2oc2ccccc23)c1 |  | 6.21 |
| CCN(CC)C(=O)CSC1=C(C#N)C(c2cccs2)C=C(C)N1 (stereo not drawn) | inactive |  |
| COc1ccc(CNC(=O)CCCn2c(=S)[nH]c3cc4c(cc3c2=O)OCO4)cc1 |  | 5.21 |
| CCOC(=O)CSc1nc2cc(OCC)ccc2cc1C#N |  | 5.22 |

| SMILES | IC50 | pIC50 |
| --- | --- | --- |
| Cc1ccc(-c2nn3c(C)nnc3s2)cc1NC(=O)c1ccc(-c2ccc(Cl)cc2Cl)o1 | > 40 µM (inactive) |  |
| CCN(CC)c1ccc2cc(C=O)c(=O)oc2c1 | > 40 µM (inactive) |  |
| Cc1ccc(-n2c(N)c(C#N)c(-c3ccc(Cl)cc3)c(C#N)c2=O)cc1 |  | 5.34 |
| O=[N+]([O-])c1ccc2c(c1)Cc1cc(F)ccc1-2 |  | 5.02 |
| Cc1ccc2c(c1)c(/C=C/c1cc[n+](C)cc1)c(C)n2C | > 40 µM (inactive) |  |
| COc1cccc(-c2nc(CS(=O)(=O)CC(=O)NCCCc3ccccc3)c(C)o2)c1 |  | 5.11 |
| CCCCNc1ccc2c3c(cccc13)C(=O)N(CCCC)C2=O |  | 5.56 |
| C=CCN1C(=O)/C(=C\C=C2\N(C)c3ccccc3C2(C)C)SC1=S | inactive |  |
| CCCCOc1ccc(C(=O)n2ccc3ccc(-c4ccc5ccn(Cc6ccccc6)c5c4)cc32)cc1 | > 40 µM (inactive) |  |
| COc1ccc(-n2nc3c(N4CCC(C(=O)NCc5ccccc5)CC4)nnc(C)c3c2C)cc1 | > 40 µM (inactive) |  |
| CC(=O)c1cnc2c(-c3cccc(Br)c3)cnn2c1C | > 40 µM (inactive) |  |
| Cc1ccc(OCC(=O)Nc2ccc(O)c(-c3nc4ccccc4o3)c2)cc1 | > 40 µM (inactive) |  |
| COc1ccc(CC(=O)Nc2cc(C)c3c(=O)oc4ccccc4c3n2)cc1 |  | 5.35 |
| COc1ccccc1NC(=O)c1sc2nc(Cc3ccccc3)cc(C(F)(F)F)c2c1N | inactive |  |
| C=CCn1c(=NC(=O)c2ccco2)sc2cc(C(=O)OC)ccc21 | inactive |  |
| O=C(NCc1ccco1)c1ccc(Cn2c(=O)c3sccc3n(Cc3cccc(F)c3)c2=O)cc1 | > 40 µM (inactive) |  |
| Cc1cccc2cc(C#N)c(SCC(=O)NCc3cccs3)nc12 |  | 5.01 |
| CN(C)c1ccc(/C=C/c2cc[n+](C)cc2)cc1 |  | 5.46 |
| Fc1cnc(N2CCc3ccccc32)nc1N1CCc2ccccc21 |  | 5.49 |
| CCSC1=N/C(=C\C=C2/Oc3ccccc3N2CC)C(=O)S1 |  | 5.03 |
| CC(=O)NC(=S)Nc1ccc2oc(-c3cc(F)c(F)cc3Cl)nc2c1 |  | 5.48 |
| O=C(CSc1ncnc2c1oc1ccccc12)c1cccs1 |  | 5.20 |
| CCOc1ccccc1NC(=O)c1cnc2n(c1=O)CCS2 | > 40 µM (inactive) |  |
| C=CCNC(=O)c1ccc(-c2nc(-c3ccc(Cl)cc3Cl)cs2)cc1 |  | 5.34 |
| COc1ccc(Cn2ccc3ccc(-c4ccc5ccn(C(=O)c6cccc(OC)c6)c5c4)cc32)cc1 | > 40 µM (inactive) |  |
| O=C(Cn1cc(C(F)(F)F)cc(Cl)c1=O)NCc1ccc(Cl)cc1Cl | inactive |  |

| SMILES | IC50 | pIC50 |
| --- | --- | --- |
| CCN1C(=O)/C(=C/c2ccc(N3CCCC3)cc2)NC1=S |  | 5.94 |
| O=C(Cc1sc(-c2ccccc2)nc1-c1ccccc1)Nc1ccc(Cl)cc1 |  | 5.49 |
| COc1cccc(CNC(=O)CCCn2c(=S)[nH]c3cc4c(cc3c2=O)OCO4)c1 |  | 6.21 |
| Cc1cccc2cc(C#N)c(SCC(=O)N3CCC(C)CC3)nc12 |  | 5.90 |
| COc1ccccc1-c1ccc2c(c1)C(C)(Cc1cccc(C#N)c1)C(=O)N2 (stereo not drawn) | > 40 µM (inactive) |  |
| CC1(C)Cc2c(c(N3CCCC3)nc3sc(C(=O)Nc4ccccc4)c(N)c23)CO1 |  | 5.47 |
| CC(=O)Oc1c(/C=C(\C#N)C(N)=O)[nH]c2ccccc12 |  | 5.66 |
| COc1ccc(/C=C/C(=O)NC(=S)N2CCN(c3ccccc3OC)CC2)cc1 |  | 5.78 |
| O=C(NCc1ccccc1)C(c1cc2ccccc2o1)n1c(=O)c(-c2ccccc2)nc2ccccc21 (stereo not drawn) | > 40 µM (inactive) |  |
| O=C(N=c1ccn(-c2nc3ccccc3nc2NS(=O)(=O)c2ccc(Cl)cc2)cc1)c1cccs1 | > 40 µM (inactive) |  |
| Cc1cc(C)c(NC(=O)CSc2nc3ncc(Br)cc3[nH]2)c(Cl)c1 |  | 5.21 |
| Cc1ccc(Oc2nccc(-c3ccc(Cl)cc3)n2)cc1 |  | 5.14 |
| O=S(=O)(c1ccc2nc(N3CCN(c4ccccc4)CC3)ccc2c1)N1CCCCC1 | inactive |  |
| CC1CCN(S(=O)(=O)c2ccc3nc(N4CCN(c5ccccc5)CC4)ccc3c2)CC1 |  | 5.08 |
| Cc1cc(=O)oc2cc(OCC(=O)Nc3ccc(S(=O)(=O)N(C)C)cc3)ccc12 | > 40 µM (inactive) |  |
| Cn1nnnc1-c1cc(Br)ccc1NC(=O)c1ccccc1 | inactive |  |
| COC(=O)Cn1c(=NC(=O)c2nc3ccccc3s2)sc2cc(S(C)(=O)=O)ccc21 |  | 6.40 |
| Oc1ccccc1-c1nc(NCc2ccccc2)c2ccccc2n1 | > 40 µM (inactive) |  |
| O=C(Nc1nc(-c2ccccc2)c(C(=O)c2ccccc2)s1)c1ccc(S(=O)(=O)N2CCCCC2)cc1 |  | 6.27 |
| COc1ccccc1C(=O)Nc1nc2ccccc2s1 |  | 5.28 |
| Cc1ccc(-n2c(SCC(=O)Nc3cccc(C)c3)nc3c(oc4ccccc43)c2=O)cc1 |  | 5.66 |
| Cc1cc(NC(=O)c2cccs2)cc(-c2nc3ncccc3o2)c1O | inactive |  |
| CC(=O)c1sc(NC(=O)c2oc3ccc(F)cc3c2C)nc1C |  | 5.08 |
| CCCCCOc1ccc(NC(=O)CSc2cccc3cccnc23)cc1 |  | 6.17 |
| O=C(Nc1nc(-c2cccs2)c(-c2cccs2)s1)C1CCCC1 |  | 5.54 |
